# Assay results taken from paper PMC6792352, “Limited Chemical Structural Diversity Found to Modulate Thyroid Hormone Receptor in the Tox21 Chemical Library” (Environmental Health Perspectives, 2019).
# Structures can show the parent of a compound that is named as a salt.
# Experiment: in vitro
# Settings: rat, gh3-tre-luc cells, AC50 (uM) modified / 1000
row,Structure (SMILES),CC50 at 24 h
1,CC(COCCO)OCCO (centres unmarked) [Pluronic F-127],> 80 µM
2,CC[C@H]1OC(=O)[C@H](C)[C@@H](O[C@H]2C[C@@](C)(OC)[C@@H](O)[C@H](C)O2)[C@H](C)[C@@H](O[C@@H]2O[C@H](C)C[C@H](N(C)C)[C@H]2O)[C@](C)(O)C[C@@H](C)C(=O)[C@H](C)[C@@H](O)[C@]1(C)O [Erythromycin],> 70 µM
3,"Brc1ccc(Oc2ccc(Br)cc2)cc1 [4,4'-Dibromodiphenyl ether]",> 90 µM
4,COc1cc(C)c(/C=C/C(C)=C/C=C/C(C)=C/C(=O)O)c(C)c1C [Acitretin],> 50 µM
5,"CC1(C)NC(=O)NC1=O [5,5-Dimethylhydantoin]",> 90 µM
6,Cn1cc([S+](C)[O-])c(=O)c2ccc(F)cc21 (centres unmarked) [Flosequinan],> 50 µM
7,C[C@@H](O)C(=O)O [D-Lactic acid],> 100 µM
8,COc1ccc(CCN(C)CCCC(C#N)(c2cc(OC)c(OC)c(OC)c2)C(C)C)cc1OC (centres unmarked) [Gallopamil hydrochloride],21 µM
9,O=C(CCCN1CCC(n2c(O)nc3ccccc32)CC1)c1ccc(F)cc1 [Benperidol],> 20 µM
10,CC1(C)O[C@@H]2C[C@H]3[C@@H]4CCC5=CC(=O)C=C[C@]5(C)[C@H]4[C@@H](O)C[C@]3(C)[C@]2(C(=O)CO)O1 [Desonide],> 50 µM
11,"Clc1ccc(C(Cl)(Cl)Cl)cc1Cl [1,2-Dichloro-4-(trichloromethyl)benzene]",> 90 µM
12,NNC(N)=S [Thiosemicarbazide],> 100 µM
13,CC(C)(C)OCC1CO1 (centres unmarked) [tert-Butyl glycidyl ether],> 90 µM
14,"Cn1c(N)c(N=O)c(=O)n(C)c1=O [6-Amino-1,3-dimethyl-5-nitroso-2,4(1H,3H)-pyrimidinedione]",> 90 µM
15,OC(C#CCN1CCCC1)(c1ccccc1)c1ccccc1 [Butinoline],35.3 µM
16,COc1cc2c(Nc3ccc(Br)cc3F)ncnc2cc1OCC1CCN(C)CC1 [Vandetanib],3.74 µM

row,Structure (SMILES),CC50 at 24 h
1,O=C(O)[C@@H]1C[C@H](CP(=O)(O)O)CCN1 (racemic) [Selfotel],> 50 µM
2,"CN(C)c1ccc(CCO)cc1 [p-N,N-Dimethylaminophenethanol]",> 90 µM
3,COC(=O)c1ccccc1S(=O)(=O)NC(=O)N(C)c1nc(C)nc(OC)n1 [Tribenuron-methyl],> 100 µM
4,CC(C)=CCC/C(C)=C/CC/C(C)=C/CC/C=C(\C)CC/C=C(\C)CCC=C(C)C [(E)-Squalene],> 50 µM
5,CCCCCC1Nc2cc(C(F)(F)F)c(S(N)(=O)=O)cc2S(=O)(=O)N1 (centres unmarked) [Penflutizide],> 50 µM
6,Nc1cccc2c1CN(C1CCC(=O)NC1=O)C2=O (centres unmarked) [Lenalidomide],> 50 µM
7,CC1(C)CCC(NC(=O)[C@@H](N)CCC(=O)O)CC1 [Neboglamine],> 50 µM
8,NC(=O)C(c1ccccc1)(c1ccccc1)[C@@H]1CCN(CCc2ccc3c(c2)CCO3)C1 [Darifenacin hydrobromide],14.7 µM
9,"CC(C)CC(C)(C)C [2,2,4-Trimethylpentane]",> 100 µM
10,CCCCc1ccc(O)cc1 [4-Butylphenol],92.9 µM
11,CS(=O)(=O)c1ccc([C@@H](O)[C@@H](COC(=O)CN)NC(=O)C(Cl)Cl)cc1 [Thiamphenicol glycinate hydrochloride],> 50 µM
12,CCOC(=O)C(C)(C)C [Ethylpivalate],> 90 µM
13,CC1(C)Oc2ccc(C#N)cc2[C@@H](N2CCCC2=O)[C@@H]1O [Levcromakalim],> 50 µM
14,N#CCc1cccc(C(F)(F)F)c1 [[3-(Trifluoromethyl)phenyl]acetonitrile],> 90 µM
15,O=S(=O)(O)c1cccc2ccccc12 [Sodium 1-naphthalenesulfonate],> 90 µM
16,CC1CCCO1 (centres unmarked) [2-Methyltetrahydrofuran],> 90 µM

# Same assay, conditions: rat, gh3-tre-luc cells, AC50 (uM) modified / 1000, Tox21_110001=Tox21_202323; viability, 1 nM T3 present, 24 h
row,Structure (SMILES),CC50 at 24 h
1,"c1ccc(NNc2ccccc2)cc1 [1,2-Diphenylhydrazine]",> 90 µM

# Same assay, conditions: rat, gh3-tre-luc cells, AC50 (uM) modified / 1000, Tox21_110001=Tox21_300492; viability, 1 nM T3 present, 24 h
row,Structure (SMILES),CC50 at 24 h
1,"c1ccc(NNc2ccccc2)cc1 [1,2-Diphenylhydrazine]",67.9 µM

# Same assay, conditions: rat, gh3-tre-luc cells, AC50 (uM) modified / 1000, Tox21_110001=Tox21_300782; viability, 1 nM T3 present, 24 h
row,Structure (SMILES),CC50 at 24 h
1,O=S1(=O)OCC2C(CO1)C1(Cl)C(Cl)=C(Cl)C2(Cl)C1(Cl)Cl (centres unmarked) [Endosulfan sulfate],56.1 µM
